Patent US20120121679A1, “VIRICIDAL AND MICROBICIDAL COMPOSITIONS AND USES THEREOF” (University of Georgia Research Foundation, Inc., priority 2009, published 2012)
Read-outs that look alike come from different tables or passages of the source.

Columns and labels:
Murine norovirus (MNV-1) = test: Inactivation of MNV-1 by levulinic acid plus SDS in solution, plaque assay; details: 21° C., 1 min
Feline Calicivirus (FCV) = test: Inactivation of FCV by levulinic acid plus SDS in solution, plaque assay; details: 21° C., 1 min
yeast species = test: Effect of levulinic acids plus SDS at 21° C. on various yeast species
S. enteritidis = test: Reduction of S. enteritidis in water treated with organic acids and SDS; format: cell-based, Salmonella enteritidis; details: within 30 minutes
[1] = system: spores of Bacillus anthracis Sterne (34F2); format: cell-based
[2] = Debaryomyces hansenii, inoculum […] 10^7 CFU/ml
[3] = Geotrichum candidum, inoculum […] 10^7 CFU/ml
[4] = Saccharomyces cerevisiae, inoculum […] 10^7 CFU/ml
[5] = Zygosaccharomyces bailii, inoculum […] 10^7 CFU/ml
[6] = Candida magnoliae, inoculum […] 10^8 CFU/ml

With `CC(=O)CCC(=O)O` [2.0% levulinic acid, levulinic acid] the “Log Reduction PFU/ml (standard deviation), MNV-1” value (Murine norovirus (MNV-1); listed as 2% Levulinic acid) was −0.06 (±0.17) log PFU/ml, the “Log Reduction PFU/ml (standard deviation), FCV” value (Feline Calicivirus (FCV); listed as 2% Levulinic acid) was 0.51 (±0.34) log PFU/ml and the “Yeast counts at 2 min” value (yeast species; [2]) was 4.9 log CFU/ml. For the same molecule, the “Yeast counts at 5 min” value (yeast species; [2]) was 4.6 log CFU/ml, the “Yeast counts at 20 min” value (yeast species; [2]) was 4.7 log CFU/ml and the “Yeast counts at 30 min” value (yeast species; [2]) was 3.0 log CFU/ml. The “Yeast counts at 60 min” value (yeast species; [2]) was 1.3 log CFU/ml, the “Yeast counts at 2 min” value (yeast species; [3]) was 4.4 log CFU/ml and the “Yeast counts at 5 min” value (yeast species; [3]) was 4.3 log CFU/ml. For the same molecule, the “Yeast counts at 20 min” value (yeast species; [3]) was 3.8 log CFU/ml, the “Yeast counts at 30 min” value (yeast species; [3]) was 3.4 log CFU/ml and the “Yeast counts at 60 min” value (yeast species; [3]) was 2.0 log CFU/ml. For the same molecule, the “Yeast counts at 2 min” value (yeast species; [4]) was 5.5 log CFU/ml, the “Yeast counts at 5 min” value (yeast species; [4]) was 5.4 log CFU/ml and the “Yeast counts at 20 min” value (yeast species; [4]) was 5.3 log CFU/ml. The “Yeast counts at 30 min” value (yeast species; [4]) was 5.5 log CFU/ml, the “Yeast counts at 60 min” value (yeast species; [4]) was 5.0 log CFU/ml and the “Yeast counts at 2 min” value (yeast species; [5]) was 5.5 log CFU/ml. The “Yeast counts at 5 min” value (yeast species; [5]) was 5.4 log CFU/ml, the “Yeast counts at 20 min” value (yeast species; [5]) was 5.4 log CFU/ml and the “Yeast counts at 30 min” value (yeast species; [5]) was 5.4 log CFU/ml. The “Yeast counts at 60 min” value (yeast species; [5]) was 5.3 log CFU/ml.

With `CC(=O)CCC(=O)O` [2.0% levulinic acids] the “Yeast counts at 2 min” value (yeast species; [6]) was 5.9 log CFU/ml, the “Yeast counts at 5 min” value (yeast species; [6]) was 5.9 log CFU/ml and the “Yeast counts at 20 min” value (yeast species; [6]) was 6.0 log CFU/ml. The “Yeast counts at 30 min” value (yeast species; [6]) was 5.9 log CFU/ml and the “Yeast counts at 60 min” value (yeast species; [6]) was 5.8 log CFU/ml.

For `CC(=O)CCC(=O)O` [3.0% levulinic acid, levulinic acid], the “Log Reduction PFU/ml (standard deviation), MNV-1” value (Murine norovirus (MNV-1); listed as 3% Levulinic acid) was −0.09 (±0.10) log PFU/ml, the “Salmonella reduction in water” value (S. enteritidis) was 3.4 log CFU/ml and the “Salmonella reduction in water” value (S. enteritidis; listed as 3% levulinic acid) was “about 3.4 log CFU/ml”. For the same molecule, the “Log Reduction PFU/ml (standard deviation), FCV” value (Feline Calicivirus (FCV); listed as 3% Levulinic acid) was 0.43 (±0.23) log PFU/ml, the “CFU/ml % recovery (as compared to control flask F)” value (“CFU/ml % recovery” for short) ([1]; Experiment A3, 0 min) was 108% and the “CFU/ml % recovery” value ([1]; Experiment A3, 10 min) was 81%. The “CFU/ml % recovery” value ([1]; Experiment A3, 45 min) was 55%, the “CFU/ml % recovery” value ([1]; Experiment A3, 90 min) was 64% and the “CFU/ml % recovery” value ([1]; Experiment A4 absent heat, RT, 0 min) was 89%. For the same molecule, the “CFU/ml % recovery” value ([1]; Experiment A4 absent heat, RT, 1 h) was 54%, the “CFU/ml % recovery” value ([1]; Experiment A4 absent heat, RT, 2 h) was 27% and the “CFU/ml % recovery” value ([1]; Experiment A4 absent heat, RT, 3 h) was 30%. The “CFU/ml % recovery” value ([1]; Experiment A4 absent heat, RT, 4 h) was 15%, the “CFU/ml % recovery” value ([1]; Experiment A4 with heat, 65° C., 0 min) was 70% and the “CFU/ml % recovery” value ([1]; Experiment A4 with heat, 65° C., 1 h) was 78%. The “CFU/ml % recovery” value ([1]; Experiment A4 with heat, 65° C., 2 h) was 45%, the “CFU/ml % recovery” value ([1]; Experiment A4 with heat, 65° C., 3 h) was 33% and the “CFU/ml % recovery” value ([1]; Experiment A4 with heat, 65° C., 4 h) was 46%. For the same molecule, the “CFU/ml % recovery” value ([1]; Experiment A5 absent heat, RT, 0 min) was 105%, the “CFU/ml % recovery” value ([1]; Experiment A5 absent heat, RT, 1 h) was 80% and the “CFU/ml % recovery” value ([1]; Experiment A5 absent heat, RT, 2 h) was 46%. For the same molecule, the “CFU/ml % recovery” value ([1]; Experiment A5 absent heat, RT, 3 h) was 67%, the “CFU/ml % recovery” value ([1]; Experiment A5 absent heat, RT, 4 h) was 37% and the “CFU/ml % recovery” value ([1]; Experiment A5 with heat, 65° C., 0 min) was 75%. For the same molecule, the “CFU/ml % recovery” value ([1]; Experiment A5 with heat, 65° C., 1 h) was 58%, the “CFU/ml % recovery” value ([1]; Experiment A5 with heat, 65° C., 2 h) was 34% and the “CFU/ml % recovery” value ([1]; Experiment A5 with heat, 65° C., 3 h) was 34%. The “CFU/ml % recovery” value ([1]; Experiment A5 with heat, 65° C., 4 h) was 14%.
